# From patent US6486167B1, “Heterocyclic cytotoxic agents” (Rutgers, The State University of New Jersey, priority 1997, dated 2002)
# Where two headings read alike, the source gives them in different places.
# Tests used:
# [1] = molecular target: T1, human topoisomerase I (Homo sapiens, UniProt P11387); assay: Topoisomerase I-mediated DNA cleavage assay (Test A); type: biochemical; settings: for Topo I-mediated DNA cleavage (REC, Relative Effective Concentration): concentration relative to camptothecin (CPT = 1) producing the same cleavage on plasmid DNA, human topoisomerase I; for topoisomerase I poisoning activity (in words): qualitative statement
# T1 construct: made in house
# T1 sequence (P11387 1-765): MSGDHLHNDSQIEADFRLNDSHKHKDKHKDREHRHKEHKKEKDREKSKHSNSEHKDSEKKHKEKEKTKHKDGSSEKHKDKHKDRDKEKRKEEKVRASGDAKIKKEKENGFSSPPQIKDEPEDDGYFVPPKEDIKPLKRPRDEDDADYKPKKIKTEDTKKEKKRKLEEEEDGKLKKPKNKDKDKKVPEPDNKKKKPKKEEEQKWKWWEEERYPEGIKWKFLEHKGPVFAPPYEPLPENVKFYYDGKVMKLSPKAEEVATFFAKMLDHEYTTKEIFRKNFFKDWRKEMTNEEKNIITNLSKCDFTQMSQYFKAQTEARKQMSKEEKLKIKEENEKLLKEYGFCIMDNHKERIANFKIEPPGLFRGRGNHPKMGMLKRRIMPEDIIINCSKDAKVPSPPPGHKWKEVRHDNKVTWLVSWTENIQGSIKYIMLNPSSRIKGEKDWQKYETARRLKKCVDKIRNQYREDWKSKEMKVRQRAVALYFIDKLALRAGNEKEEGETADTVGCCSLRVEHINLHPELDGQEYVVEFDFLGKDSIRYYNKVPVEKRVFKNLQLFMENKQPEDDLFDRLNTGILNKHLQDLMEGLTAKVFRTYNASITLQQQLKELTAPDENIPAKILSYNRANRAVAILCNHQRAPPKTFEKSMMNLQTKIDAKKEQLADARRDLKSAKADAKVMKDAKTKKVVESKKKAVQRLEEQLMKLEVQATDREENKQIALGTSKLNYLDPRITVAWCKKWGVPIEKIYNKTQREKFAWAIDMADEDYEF
# Method: (§1) Topoisomerase I and Topoisomerase II Cleavage Assay
# (§2) Representative compounds of the invention were evaluated in cleavage assays for the recombinant topoisomerases I and calf thymus topoisomerases I and II. These assays were preformed as described by B. Gatto et al. Cancer Res., 1996, 56, 2795-2800. Human topoisomerase I was isolated as a recombinant fusion protein using a T7 expression system. DNA topoisomerase II was purified from calf thymus gland as reported by Halligan, B. D.; Edwards, K. A.; Liu, L. F. “Purification and characterization of a type II DNA topoisomerase from bovine calf thymus,” J. Biol. Chem. 1985, 260, 2475. Plasmid YEpG was purified by the alkali lysis method followed by phenol deproteination and CsCl/ethidium isopycnic centrifugation as described by Maniatis, T.; Fritsch, E. F.; Sambrook, J. Molecular Cloning, a Laboratory Manual; Cold Spring Harbor Laboratory: Cold Spring Harbor, N.Y. 1982; pp 149-185. The end-labeling of the plasmid was accomplished by digestion with a restriction enzyme followed by end-filling with Klenow polymerase as previously described by Liu, L. F.; Rowe, T. C.; Yang, L.; Tewey, K. M.; Chen, G. L. “Cleavage of DNA by mammalian topoisomerase II,” J. Biol. Chem. 1983, 258, 15365.
# [2] = tested on: camptothecin-resistant variant cell line, CPT-K5; assay: MTT-microtiter plate tetrazolinium cytotoxicity assay (Test B), CPT-K5; type: cell-based, human; settings: read-out: Cytotoxicity IC50 CPT-K5
# Method: (§3) The cytotoxicity was determined using the MTT-microtiter plate tetrazolinium cytotoxicity assay (MTA) (See Chen A. Y. et al. Cancer Res. 1993, 53, 1332; Mosmann, T. J., J. Immunol. Methods 1983, 65, 55; and Carmichael, J. et al. Cancer Res. 1987, 47, 936).
# [3] = tested on: human lymphoblast RPMI 8402; assay: MTT-microtiter plate tetrazolinium cytotoxicity assay (Test B), RPMI 8402; type: cell-based; settings: read-out: Cytotoxicity IC50 RPMI
# Method: as §3
# [4] = tested on: calf thymus topoisomerase II; assay: Topoisomerase II-mediated DNA cleavage assay (Test A); type: biochemical; settings: concentration relative to VM-26 (= 1) producing the same cleavage on plasmid DNA
# Method: as §1, §2
# [5] = Homo sapiens, 96 h, CPT-K5 camptothecin-resistant cells, 4 days of continuous drug exposure
Compound,"Topo I-mediated DNA cleavage (REC, Relative Effective Concentration) [1]","IC50 [2, 5] [µM]","IC50 ([3]; Homo sapiens, 96 h, RPMI 8402 cells, 4 days of continuous drug exposure) [µM]","Topo II-mediated DNA cleavage (REC, Relative Effective Concentration) [4]","IC50 ([2]; CPT-K5 camptothecin-resistant cells, 4 days of continuous drug exposure) [µM]","IC50 ([3]; RPMI 8402 cells, 4 days of continuous drug exposure) [µM]",topoisomerase I poisoning activity (in words) [1],melting point [°C],"IC50 ([2]; Homo sapiens, CPT-K5, 96 h) [µM]","IC50 ([3]; Homo sapiens, RPMI 8402, 96 h) [µM]"
"CC[C@@]1(O)C(=O)OCc2c1cc1n(c2=O)Cc2cc3ccccc3nc2-1 [CPT, camptothecin, reference compound]",1,> 10,0.004,>1000,,,,,,
"COc1cc([C@@H]2c3cc4c(cc3[C@@H](O[C@@H]3O[C@@H]5CO[C@@H](c6cccs6)O[C@H]5[C@H](O)[C@H]3O)[C@H]3COC(=O)[C@H]23)OCO4)cc(OC)c1O [VM-26, teniposide, reference compound]",>1000,,,1,0.5,0.3,,,,
"COc1cc2ccc3c4cc(OC)c(OC)cc4nc(C)c3c2cc1OC [Compound 5, 5-Methyl-2,3,8,9-tetramethoxybenzo[i]phenanthridine]",>1000,,,>1000,,,significantly less topoisomerase I poisioning activity,255 to 257,> 27.5,27.5
"COc1cc2c[n+](C)c3c4cc5c(cc4ccc3c2cc1OC)OCO5 [Nitidine, reference compound]",1,> 2.6,,1,,,,,,0.65
"COc1cc2ccc3c4cc(OC)c(OC)cc4ncc3c2cc1OC [Compound 4, 2,3,8,9-Tetramethoxybenzo[i]phenanthridine]",>1000,,,>1000,,,significantly less topoisomerase I poisioning activity,267 to 268,22.9,22.9
"COc1cc2ccc3c4cc5c(cc4ncc3c2cc1OC)OCO5 [Compound 28, 2,3-Dimethoxy-8,9-methylenedioxybenzo[i]phenanthridine]",25,,,>1000,,,potent topoisomerase poisioning activity,171,0.2,0.2
"COc1cc2ccc3c4cc(N)ccc4ncc3c2cc1OC [Compound 31, 2,3-Dimethoxy-9-aminobenzo[i]phenanthridine]",50,,,>1000,,,,,3,3
"COc1ccc2c(c1)ncc1c3cc(OC)c(OC)cc3ccc21 [Example 9, 2,3,8-Trimethoxybenzo[i]phenanthridine]",,,,,,,,200 to 202,,
"COc1cc2nc(C)c3c4cc5c(cc4ccc3c2cc1OC)OCO5 [Compound 7, 8,9-Dimethoxy-5-methyl-2,3-methylenedioxybenzo[i]-phenanthridine]",200,,,100,,,potent activity,> 250,14.4,10.1
"2,3,8,9-Dimethylenedioxybenzo[i]phenanthridine [Compound 29]",100,,,>1000,,,,,,
"COc1cc2ccc3c4cc(OCc5ccccc5)ccc4ncc3c2cc1OC [Compound 30, 2,3-Dimethoxy-9-benzyloxybenzo[i]phenanthridine]",250,,,>1000,,,,,7.5,7.5
"COc1cc2ncc3c4cc5c(cc4ccc3c2cc1OC)OCO5 [Compound 6, 2,3-Methylenedioxy-8,9-dimethoxybenzo[i]phenanthridine]",100,,,10,,,potent activity,> 250,7,7.5
